Results: ChEMBL document CHEMBL3797077, “Design and synthesis of N-(4-aminopyridin-2-yl)amides as B-Raf(V600E) inhibitors” (Bioorg Med Chem Lett, 2016)

Experiments:
HT-29 = assay: Cytotoxicity against human HT-29 cells harboring B-Raf V600E mutant assessed as growth inhibition after 72 hrs by MTT assay; type: functional, cell-based; settings: HT-29, 72 h
[1] = Cytotoxicity against human HCT116 cells harboring wild type B-Raf assessed as growth inhibition after 72 hrs by MTT assay; type: functional, cell-based; settings: HCT-116, 72 h
[2] = Cytotoxicity against human COLO205 cells harboring B-Raf V600E mutant assessed as growth inhibition after 72 hrs by MTT assay; type: functional, cell-based; settings: COLO 205, 72 h
[3] = biological target: Serine/threonine-protein kinase B-raf (Homo sapiens, UniProt P15056); assay: Inhibition of recombinant wild type full length human GST-tagged B-Raf expressed in baculovirus expression system using Z'-LYTE Ser/Thr3 peptide as substrate incubated for 1 hr by FRET-based Z'-LYTE assay
[4] = biological target: Serine/threonine-protein kinase B-raf (Homo sapiens, UniProt P15056, V600E); assay: Inhibition of recombinant human N-terminal GST-tagged B-Raf V600E mutant expressed in baculovirus expression system using Z'-LYTE Ser/Thr3 peptide as substrate incubated for 1 hr by FRET-based Z'-LYTE assay
COLO 205 = assay: Selectivity ratio of IC50 for human HCT116 cells harboring wild type B-Raf to IC50 for human COLO205 cells harboring B-Raf V600E mutant; type: functional
HCT-116 = assay: Selectivity ratio of IC50 for human HCT116 cells harboring wild type B-Raf to IC50 for human HT-29 cells harboring B-Raf V600E mutant; type: functional

Serine/threonine-protein kinase B-raf (Homo sapiens, UniProt P15056, V600E), sequence (P15056 2-766 V600E limits assumed): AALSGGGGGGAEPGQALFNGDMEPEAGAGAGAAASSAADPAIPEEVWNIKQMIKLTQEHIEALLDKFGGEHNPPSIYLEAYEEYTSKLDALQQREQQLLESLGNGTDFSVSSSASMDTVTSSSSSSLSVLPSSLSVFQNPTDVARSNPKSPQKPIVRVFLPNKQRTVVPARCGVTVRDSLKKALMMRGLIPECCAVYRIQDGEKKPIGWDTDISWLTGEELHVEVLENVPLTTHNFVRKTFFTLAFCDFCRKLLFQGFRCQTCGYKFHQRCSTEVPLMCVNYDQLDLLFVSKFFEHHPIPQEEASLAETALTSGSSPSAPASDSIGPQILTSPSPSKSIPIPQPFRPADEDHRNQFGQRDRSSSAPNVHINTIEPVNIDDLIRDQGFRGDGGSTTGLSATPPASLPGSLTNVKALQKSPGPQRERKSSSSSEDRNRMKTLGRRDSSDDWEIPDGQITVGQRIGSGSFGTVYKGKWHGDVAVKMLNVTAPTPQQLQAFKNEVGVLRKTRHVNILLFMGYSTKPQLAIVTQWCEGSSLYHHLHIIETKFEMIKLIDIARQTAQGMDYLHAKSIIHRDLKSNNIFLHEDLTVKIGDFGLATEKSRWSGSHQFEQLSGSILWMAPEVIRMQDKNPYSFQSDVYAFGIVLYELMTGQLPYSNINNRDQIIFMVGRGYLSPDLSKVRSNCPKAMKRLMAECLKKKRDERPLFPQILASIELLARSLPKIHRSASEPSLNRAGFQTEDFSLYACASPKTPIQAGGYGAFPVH
Serine/threonine-protein kinase B-raf (Homo sapiens, UniProt P15056), sequence (P15056 whole entry): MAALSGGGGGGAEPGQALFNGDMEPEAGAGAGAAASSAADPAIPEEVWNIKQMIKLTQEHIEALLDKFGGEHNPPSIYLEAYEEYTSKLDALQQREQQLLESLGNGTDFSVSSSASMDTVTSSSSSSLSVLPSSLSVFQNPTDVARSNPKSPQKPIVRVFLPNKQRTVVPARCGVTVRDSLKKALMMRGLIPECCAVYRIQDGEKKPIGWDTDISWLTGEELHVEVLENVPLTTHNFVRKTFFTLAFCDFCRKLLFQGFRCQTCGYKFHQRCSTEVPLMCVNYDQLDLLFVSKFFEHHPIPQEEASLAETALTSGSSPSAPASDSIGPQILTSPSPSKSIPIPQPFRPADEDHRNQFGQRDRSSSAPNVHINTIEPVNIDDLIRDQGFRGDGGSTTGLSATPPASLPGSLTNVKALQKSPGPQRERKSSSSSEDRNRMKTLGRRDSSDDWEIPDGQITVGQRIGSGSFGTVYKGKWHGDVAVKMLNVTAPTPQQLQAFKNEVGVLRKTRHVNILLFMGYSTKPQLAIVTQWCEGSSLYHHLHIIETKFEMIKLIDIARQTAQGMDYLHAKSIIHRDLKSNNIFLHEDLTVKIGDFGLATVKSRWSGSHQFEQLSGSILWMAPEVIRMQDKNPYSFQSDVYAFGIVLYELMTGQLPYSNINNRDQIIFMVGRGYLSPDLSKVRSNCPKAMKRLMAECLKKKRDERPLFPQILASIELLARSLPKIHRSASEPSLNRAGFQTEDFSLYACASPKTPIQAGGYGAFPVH

Compound | IC50 (HT-29) [µM] | IC50 [1] [µM] | IC50 [2] [µM] | IC50 [3] [µM] | IC50 [4] [µM] | also measured
N#Cc1c(Oc2ccc(F)c(NC(=O)Cc3cccc(C(F)(F)F)c3)c2)ccc2nc(NC(=O)C3CC3)sc12 | 0.033 | 0.362 | 0.025 | 0.077 |  | 
CCC(=O)Nc1cc(Nc2cccc(NC(=O)c3cccc(C4CC4)c3)c2)ccn1 |  |  |  |  | 0.125 | 
O=C(Nc1cccc(Nc2ccnc(NC(=O)C3CCCCC3)c2)c1)c1cccc(C2CC2)c1 |  |  |  |  | 0.563 | 
CC(C)(C)c1cccc(C(=O)Nc2cccc(Nc3ccnc(NC(=O)C4CC4)c3)c2)c1 | 0.991 | 1.39 | 0.787 | 0.24 | 0.02 | 
O=C(Nc1cccc(Nc2ccnc(NC(=O)C3CC3)c2)c1)c1cccc(Cl)c1 |  |  |  |  | 0.785 | 
O=C(Nc1cccc(Nc2ccnc(NC(=O)C3CC3)c2)c1)c1cccc([N+](=O)[O-])c1 |  |  |  |  | 1.51 | 
CC(C)(C#N)c1cccc(C(=O)Nc2cccc(Nc3ccnc(NC(=O)C4CC4)c3)c2)c1 | 0.094 | 1.09 | 0.136 | 0.476 | 0.038 | Ratio IC50 (COLO 205): 12; Ratio IC50 (HCT-116): 12
O=C(Nc1cccc(Nc2ccnc(NC(=O)C3CC3)c2)c1)c1ccc(C(F)(F)F)cc1 |  |  |  |  | > 10 | 
O=C(Nc1cccc(Nc2ccnc(NC(=O)C3CC3)c2)c1)c1cccc(C2CC2)c1 | 0.092 | 0.221 | 0.111 | 0.453 | 0.035 | 
CCc1cccc(C(=O)Nc2cccc(Nc3ccnc(NC(=O)C4CC4)c3)c2)c1 |  |  |  |  | 0.11 | 
O=C(Nc1cccc(Nc2ccnc(NC(=O)C3CCC3)c2)c1)c1cccc(C2CC2)c1 |  |  |  |  | 0.182 | 
N#Cc1cccc(C(=O)Nc2cccc(Nc3ccnc(NC(=O)C4CC4)c3)c2)c1 |  |  |  |  | 3.53 | 
O=C(Nc1cccc(Nc2ccnc(NC(=O)C3CC3)c2)c1)c1cccc(C(F)(F)F)c1 |  |  |  |  | 0.141 | 
O=C(Nc1cccc(Nc2ccnc(NC(=O)C3CC3)c2)c1)c1ccccc1C(F)(F)F |  |  |  |  | > 10 | 
CC(C)(C)C(=O)Nc1cc(Nc2cccc(NC(=O)c3cccc(C4CC4)c3)c2)ccn1 |  |  |  |  | 1.03 | 
CC(=O)Nc1cc(Nc2cccc(NC(=O)c3cccc(C4CC4)c3)c2)ccn1 | 0.236 | 0.367 | 0.131 | 1.2 | 0.05 | 
CC(C)c1cccc(C(=O)Nc2cccc(Nc3ccnc(NC(=O)C4CC4)c3)c2)c1 | 0.462 | 1.05 | 0.444 | 0.148 | 0.013 | 
N#CC1(c2cccc(C(=O)Nc3cccc(Nc4ccnc(NC(=O)C5CC5)c4)c3)c2)CC1 | 0.791 | 1.35 | 0.725 | 2.03 | 0.079 | 
CC(C)C(=O)Nc1cc(Nc2cccc(NC(=O)c3cccc(C4CC4)c3)c2)ccn1 |  |  |  |  | 0.42 | 
Cc1cccc(C(=O)Nc2cccc(Nc3ccnc(NC(=O)C4CC4)c3)c2)c1 |  |  |  |  | 1.21 | 
O=C(Nc1cccc(Nc2ccnc(NC(=O)C3CCCC3)c2)c1)c1cccc(C2CC2)c1 |  |  |  |  | 0.434 | 
CCCS(=O)(=O)Nc1ccc(F)c(C(=O)c2c[nH]c3ncc(-c4ccc(Cl)cc4)cc23)c1F [VEMURAFENIB] | 0.156 | 14.6 | 0.044 |  |  | 
